Results from publication PMC4747864 (Molecular cancer therapeutics, 2015).
“Also recorded” adds a separate entry of the source. Each block holds one compound with its values, some of them ahead of it. Where a SMILES comes first, the peptide text is derived from it. Bridges are numbered along the chain shown (N, C = ends). [ ]: non-standard residue; d: D form. dPen = CC(C)(S)[C@@H](N)C(=O)O; βAla = NCCC(=O)O

Columns and labels:
[1] = target: T1, αvβ5 integrin (αvβ5-K562 cells) (Homo sapiens, UniProt P06756+P18084); conditions: earlier study; cited from earlier work
[2] = target: T2, α5β1 integrin (parent K562 cells) (Homo sapiens, UniProt P05556+P08648); conditions: earlier study; cited from earlier work
[3] = target: T3, αIIbβ3 integrin (αIIbβ3-K562 cells) (Homo sapiens, UniProt P05106+P08514); conditions: earlier study; cited from earlier work
[4] = system: glioblastoma U-87MG or melanoma A375M xenograft models; conditions: in vivo and ex vivo optical imaging, U-87MG or A375M xenograft models; cited from earlier work
[5] = target: T4, αvβ3 integrin (αvβ3-K562 cells) (Homo sapiens, UniProt P05106+P06756); conditions: earlier study; cited from earlier work
[6] = target: αvβ3 integrin (K562/αvβ3+ cells) (Homo sapiens, UniProt P05106+P06756); format: binding; conditions: for decrease (loss) of binding affinity / potency relative to LXW7: versus parent LXW7
[7] = target: T3, αIIbβ3 integrin (αIIbβ3-K562 cells); format: binding; conditions: 1μM biotinylated LXW64, then streptavidin-PE, flow cytometry
[8] = target: T4, αvβ3 integrin (αvβ3-K562 cells); format: binding; conditions: 1μM biotinylated LXW64, then streptavidin-PE, flow cytometry
[9] = target: T1, αvβ5 integrin (αvβ5-K562 cells); format: binding; conditions: 1μM biotinylated LXW64, then streptavidin-PE, flow cytometry
[10] = target: T2, α5β1 integrin (parent K562 cells); format: binding; conditions: 1μM biotinylated LXW64, then streptavidin-PE, flow cytometry
[11] = system: U-87MG glioblastoma cells; assay: Binding to U-87MG glioblastoma cells in vitro; format: cell-based

Compound: CC(C)[C@H]1NC(=O)[C@@H](CC(=O)O)NC(=O)[C@H](CC(=O)O)NC(=O)CNC(=O)[C@H](CCCNC(=N)N)NC(=O)CNC(=O)[C@H](N)CSSC[C@H](C(N)=O)NC1=O [peptide 1, cGRGDdvc-NH2] (H-[dC]GRGD[dD][dV][dC]-NH2; disulfide 1-8 (inferred); N-terminus assumed)
binding to αvβ5 integrin [1]: weakly
binding to α5β1 integrin [2]: no binding
binding to αIIbβ3 integrin [3]: weakly
liver uptake [4]: low liver uptake
tumor uptake [4]: excellent tumor uptake
binding to αvβ3 integrin [5]: strongly

Compound: CC(C)[C@H]1NC(=O)[C@@H](CC(=O)O)NC(=O)[C@H](CC(=O)O)NC(=O)CNC(=O)[C@H](CCCNC(=N)N)NC(=O)CNC(=O)[C@@H](N)CSSC[C@H](C(N)=O)NC1=O [peptide 2, CGRGDdvc-NH2] (H-CGRGD[dD][dV][dC]-NH2; disulfide 1-8 (inferred); N-terminus assumed)
decrease (loss) of binding affinity / potency relative to LXW7 [6]: 10 fold

Compound: CC(C)[C@H]1NC(=O)[C@@H](CC(=O)O)NC(=O)[C@H](CC(=O)O)NC(=O)CNC(=O)[C@H](CCCNC(=N)N)NC(=O)CNC(=O)[C@H](N)CSSC[C@@H](C(N)=O)NC1=O [peptide 3, cGRGDdvC-NH2] (H-[dC]GRGD[dD][dV]C-NH2; disulfide 1-8 (inferred); N-terminus assumed)
decrease (loss) of binding affinity / potency relative to LXW7 [6]: 16 fold

Compound: N=C(N)NCCC[C@@H]1NC(=O)CNC(=O)[C@H](N)CSSC[C@H](C(N)=O)NC(=O)[C@@H](Cc2cccc3ccccc23)NC(=O)[C@@H](CC(=O)O)NC(=O)[C@H](CC(=O)O)NC(=O)CNC1=O [peptide 40, cGRGDd-DNal1-c-NH2]
binding to αIIbβ3-K562 cells [7]: weakly
binding to αvβ3-K562 cells [8]: strongly; also recorded: significant positive binding
higher binding affinity than LXW7 ([6]; versus LXW7): 6.6 fold
binding to αvβ5-K562 cells [9]: weakly
binding to parent K562 cells (α5β1) [10]: no binding
binding to U-87MG glioblastoma cells [11]: binding strongly

Compound: R3-cGRGDdvc-NH2 [compound 20]
binding affinity compared with LXW7 (in words) [6]: modest loss of potency

Compound: R4-cGRGDdvc-NH2 [compound 21]
binding affinity compared with LXW7 (in words) [6]: modest loss of potency

Results, then the compound that gave them:

binding affinity compared with LXW7 (in words) [6]: complete loss of binding affinity
Compound: CC(C)[C@H]1NC(=O)[C@@H](CC(=O)O)NC(=O)[C@H](CC(=O)O)NC(=O)CNC(=O)[C@H](CCCNC(=N)N)NC(=O)CNC(=O)[C@@H](N)CSSC[C@@H](C(N)=O)NC1=O [peptide 4, CGRGDdvC-NH2] (H-CGRGD[dD][dV]C-NH2; disulfide 1-8 (inferred); N-terminus assumed)

decrease (loss) of binding affinity / potency relative to LXW7 [6]: 4 to 10 fold
Compound: CC(C)[C@H]1NC(=O)[C@@H](CC(=O)O)NC(=O)[C@H](CC(=O)O)NC(=O)CNC(=O)[C@H](CCCNC(=N)N)NC(=O)CNC(=O)[C@H](N)C(C)(C)SSC[C@H](C(N)=O)NC1=O [peptide 5, DPen-GRGDdvc-NH2] (H-[dPen]GRGD[dD][dV][dC]-NH2; disulfide 1-8 (inferred); N-terminus assumed)

decrease (loss) of binding affinity / potency relative to LXW7 [6]: 4 to 10 fold
Compound: CC(C)[C@H]1NC(=O)[C@@H](CC(=O)O)NC(=O)[C@H](CC(=O)O)NC(=O)CNC(=O)[C@H](CCCNC(=N)N)NC(=O)CNC(=O)[C@H](N)CSSC(C)(C)[C@H](C(N)=O)NC1=O [peptide 6, cGRGDdv-DPen-NH2] (H-[dC]GRGD[dD][dV][dPen]-NH2; disulfide 1-8 (inferred); N-terminus assumed)

decrease (loss) of binding affinity / potency relative to LXW7 [6]: 4 to 10 fold
Compound: CC(C)[C@H]1NC(=O)[C@@H](CC(=O)O)NC(=O)[C@H](CC(=O)O)NC(=O)CNC(=O)[C@H](CCCNC(=N)N)NC(=O)CNC(=O)[C@H](N)C(C)(C)SSC(C)(C)[C@H](C(N)=O)NC1=O [peptide 7, DPen-GRGDdv-DPen-NH2] (H-[dPen]GRGD[dD][dV][dPen]-NH2; disulfide 1-8 (inferred); N-terminus assumed)

decrease (loss) of binding affinity / potency relative to LXW7 [6]: 7.8 fold
Compound: CC(C)[C@H]1NC(=O)[C@@H](CC(=O)O)NC(=O)[C@H](CC(=O)O)NC(=O)CNC(=O)[C@H](CCCNC(=N)N)NC(=O)[C@@H](C)NC(=O)[C@H](N)CSSC[C@H](C(N)=O)NC1=O [peptide 8, caRGDdvc-NH2] (H-[dC][dA]RGD[dD][dV][dC]-NH2; disulfide 1-8 (inferred); N-terminus assumed)

decrease (loss) of binding affinity / potency relative to LXW7 [6]: 11 fold
Compound: CC(C)[C@H]1NC(=O)[C@@H](CC(=O)O)NC(=O)[C@H](CC(=O)O)NC(=O)CNC(=O)[C@H](CCCNC(=N)N)NC(=O)CCNC(=O)[C@H](N)CSSC[C@H](C(N)=O)NC1=O [peptide 9, c-βala-RGDdvc-NH2] (H-[dC][βAla]RGD[dD][dV][dC]-NH2; disulfide 1-8 (inferred); N-terminus assumed)
